Converted amounts (≈) assume the structure as drawn.
Tests used:
[1] = test system: STA 29213 (Staphylococcus aureus (ATCC29213)); test: Microtitre plate assay, IC90 determination; type: cell-based; settings: for IC90 (μg/ml) STA 29213: Staphylococcus aureus (ATCC29213); for IC90: Staphylococcus aureus, ATCC29213, Staphylococcus aureus (ATCC29213), read-out: IC90 (μg/ml) STA 29213
Description: (§1) The bacteria used in this study were grown overnight in flasks containing 100 ml Mueller-Hinton Broth (Becton Dickinson—cat. no. 275730) in sterile de-ionized water, with shaking, at 37° C. Stocks (0.5 ml/tube) were stored at −70° C. until use. Bacteria titrations were performed in microtiter plates and colony forming units (CFUs) were determined. In general, an inoculum level of approximately 100 CFUs was used for susceptibility testing.
(§2) Flat-bottom, sterile 96-well plastic microtiter plates were filled with 180 μl of sterile deionized water, supplemented with 0.25% BSA. Subsequently, stock solutions (7.8× final test concentration) of compounds were added in 45 μl volumes in column 2. Serial five-fold dilutions (45 μl in 180 μl) were made directly in the microtiter plates from column 2 to reach column 11. Untreated control samples with (column 1) and without (column 12) inoculum were included in each microtiter plate. Depending on the bacteria type, approximately 10 to 60 CFU per well of bacteria inoculum (100 TCID50), in a volume of 100 μl in 2.8× Mueller-Hinton broth medium, was added to the rows A to H, except column 12. The same volume of broth medium without inoculum was added to column 12 in row A to H. The cultures were incubated at 37° C. for 24 hours under a normal atmosphere (incubator with open air valve and continuous ventilation). At the end of incubation, one day after inoculation, the bacterial growth was quantitated fluorometrically. Therefore resazurin (0.6 mg/ml) was added in a volume of 20 μl to all wells 3 hours after inoculation, and the plates were re-incubated overnight. A change in colour from blue to pink indicated the growth of bacteria. The fluorescence was read in a computer-controlled fluorometer (Cytofluor Biosearch) at an excitation wavelength of 530 nm and an emission wavelength of 590 nm. The % growth inhibition achieved by the compounds was calculated according to standard methods. The IC90 (expressed in μg/ml) was defined as the 90% inhibitory concentration for bacterial growth.

[2] = test system: SPN 6305 (Streptococcus pneumoniae (ATCC6305)); test: Microtitre plate assay, IC90 determination; type: cell-based; settings: for IC90 (μg/ml) SPN 6305: Streptococcus pneumoniae (ATCC6305); for IC90: Streptococcus pneumoniae, ATCC6305, Streptococcus pneumoniae (ATCC6305), read-out: IC90 (μg/ml) SPN 6305
Description: as §1, §2

IC90 (μg/ml) STA 29213 [1] [µg/mL] | IC90 (μg/ml) SPN 6305 [2] [µg/mL] | IC90 [2] [µg/mL] | IC90 [1] [µg/mL] | SMILES
10.2 (≈ 17.8 µM) | 2.28 (≈ 3.98 µM) | – | – | COc1nc2ccc(Br)cc2cc1C(c1ccccc1)C(O)(CCCCN1CCCCC1)c1ccccc1 (racemic) [Compound 95]
– | – | 2.32 (≈ 3.98 µM) | 1.85 (≈ 3.17 µM) | COc1nc2ccccc2cc1C(c1ccc(Br)cc1)C(O)(CCCCN(C)C)c1ccc2ccccc2c1 (stereo not drawn) [Compound 63]
22.07 (≈ 35.5 µM) | 4.94 (≈ 7.94 µM) | – | – | COc1nc2ccc(Br)cc2cc1C(c1ccc(Cl)cc1)C(O)(CCCCN1CCCCC1)c1ccc(C)cc1 (single isomer, unassigned) [Compound 171]
8.36 (≈ 15.8 µM) | 10.53 (≈ 20 µM) | – | – | COc1nc2ccc(Br)cc2cc1C(c1ccccc1)C(O)(CCCCN(C)C)CCC(C)C (racemic) [Compound 120]
10.41 (≈ 15.8 µM) | 8.27 (≈ 12.6 µM) | – | – | COc1nc2ccc(Br)cc2cc1C(c1ccc(Cl)cc1)C(O)(CCCCN1CCN(C)CC1)CCC1CCCCC1 (single isomer, unassigned) [Compound 174]
– | 57.0 (≈ 100 µM) | – | 14.3 (≈ 25.1 µM) | COc1nc2ccc(Br)cc2cc1C(c1ccccc1)C(O)(CCCCN(C)C)c1cc(F)ccc1F (stereo not drawn) [Compound 14]
6.19 (≈ 11.2 µM) | 1.74 (≈ 3.15 µM) | – | – | COc1nc2ccc(Br)cc2cc1C(c1ccccc1)C(O)(CCCCN(C)C)CCc1ccco1 (single isomer, unassigned) [Compound 129]
9.33 (≈ 15.9 µM) | 5.25 (≈ 8.92 µM) | – | – | COc1nc2ccc(Br)cc2cc1C(c1ccccc1)C(O)(CCCCN1CCN(C)CC1)c1ccccc1 (single isomer, unassigned) [Compound 109]
1.73 (≈ 3.16 µM) | – | – | – | COc1nc2ccc(Br)cc2cc1C(c1ccccc1)C(O)(CCCCN(C)C)Cc1ccccc1 (single isomer, unassigned) [Compound 128]
– | – | – | 21.2 (≈ 39.9 µM) | COc1nc2ccc(-c3cccnc3)cc2cc1C(c1ccccc1)C(O)(CCCCN(C)C)c1ccccc1 (stereo not drawn) [Compound 43]
– | 2.29 (≈ 3.98 µM) | – | – | COc1nc2ccc(Br)cc2cc1C(c1ccccc1)C(O)(CCCCN1CCOCC1)c1ccccc1 (single isomer, unassigned) [Compound 115]
– | 7.25 (≈ 12.6 µM) | – | – | COc1nc2ccc(Br)cc2cc1C(c1ccccc1)C(O)(CCCCN1CCOCC1)c1ccccc1 (single isomer, unassigned) [Compound 114]
– | 5.4 (≈ 8.86 µM) | – | – | COc1nc2ccc(Br)cc2cc1C(c1ccccc1)C(O)(CCCCN(C)Cc1ccccc1)c1ccccc1 (stereo not drawn) [Compound 60]
– | – | 5.43 (≈ 8.91 µM) | – | COc1nc2ccc(Br)cc2cc1C(c1ccccc1)C(O)(CCCCN(C)Cc1ccccc1)c1ccccc1 (stereo not drawn) [Compound 61]

Continued, compound first:

SMILES | IC90 (μg/ml) STA 29213 [1] [µg/mL] | IC90 (μg/ml) SPN 6305 [2] [µg/mL] | IC90 [2] [µg/mL] | IC90 [1] [µg/mL]
COc1ccc(C(c2cc3cc(Br)ccc3nc2OC)C(O)(CCCCN2CCCCC2)c2ccccc2)cc1 (single isomer, unassigned) [Compound 165] | 3.81 (≈ 6.31 µM) | 1.91 (≈ 3.16 µM) | – | –
COc1nc2ccccc2cc1C(c1ccc(-c2ccccc2)cc1)C(O)(CCCCN(C)C)c1ccc2ccccc2c1 (stereo not drawn) [Compound 176] | 1.84 (≈ 3.17 µM) | 2.06 (≈ 3.55 µM) | – | –
COc1nc2ccc(Br)cc2cc1C(c1ccc(Cl)cc1)C(O)(CCCCN(C)C)c1ccc2ccccc2c1 (single isomer, unassigned) [Compound 164] | 1.4 (≈ 2.27 µM) | 0.31 (≈ 0.502 µM) | – | –
COc1nc2ccc(Br)cc2cc1C(c1ccccc1)C(O)(CCCCN1CCCCC1)CC(C)C (racemic) [Compound 121] | 8.77 (≈ 15.8 µM) | 1.96 (≈ 3.54 µM) | – | –
CCCCN(C)CCCCC(O)(c1ccccc1)C(c1ccccc1)c1cc2cc(Br)ccc2nc1OC (racemic) [Compound 92] | 11.48 (≈ 19.9 µM) | 2.29 (≈ 3.98 µM) | – | –
CN(C)CCCCC(O)(c1ccc2ccccc2c1)C(c1ccccc1)c1cc2cc(Br)ccc2nc1N1CCOCC1 (stereo not drawn) [Compound 178] | 2.02 (≈ 3.16 µM) | – | 2.27 (≈ 3.55 µM) | –
COc1nc2ccc(Cl)cc2cc1C(c1ccccc1)C(O)(CCCCN(C)C)c1ccc2ccccc2c1 (racemic) [Compound 79] | 2.15 (≈ 3.99 µM) | 2.7 (≈ 5.01 µM) | – | –
COc1nc2ccc(Br)cc2cc1C(c1ccccc1)C(O)(CCCCN1CCCCC1)c1ccccc1 (single isomer, unassigned) [Compound 101] | 9.09 (≈ 15.8 µM) | 9.09 (≈ 15.8 µM) | – | –
COc1nc2ccc(Br)cc2cc1C(c1ccccc1)C(O)(CCCCN1CCOCC1)c1ccccc1 (single isomer, unassigned) [Compound 116] | 5.76 (≈ 10 µM) | 2.04 (≈ 3.54 µM) | – | –
COc1nc2ccc(Br)cc2cc1C(c1ccccc1)C(O)(CCCCN1CCCCC1)CCC(C)C (single isomer, unassigned) [Compound 123] | 2.26 (≈ 3.98 µM) | 1.79 (≈ 3.15 µM) | – | –
COc1ccc(C(c2cc3cc(Br)ccc3nc2OC)C(O)(CCCCN(C)C)c2ccc3ccccc3c2)cc1 (single isomer, unassigned) [Compound 157] | 2.44 (≈ 3.98 µM) | 2.74 (≈ 4.47 µM) | – | –
COc1nc2ccc(Br)cc2cc1C(c1ccccc1)C(O)(CCCCN(C)C)Cc1ccccc1 (single isomer, unassigned) [Compound 127] | 1.73 (≈ 3.16 µM) | 1.73 (≈ 3.16 µM) | – | –
CN(C)CCCCC(O)(c1ccc2ccccc2c1)C(c1ccccc1)c1cc2cc(Br)ccc2nc1N1CCOCC1 (stereo not drawn) [Compound 177] | 4.52 (≈ 7.08 µM) | 4.52 (≈ 7.08 µM) | – | –
COc1ccc(C(c2cc3cc(Br)ccc3nc2OC)C(O)(CCCCN2CCCCC2)c2ccc(OC)cc2)cc1 (single isomer, unassigned) [Compound 169] | 4 (≈ 6.31 µM) | 2.52 (≈ 3.98 µM) | – | –
COc1nc2cc(C)ccc2cc1C(c1ccccc1)C(O)(CCCCN(C)C)c1ccc2ccccc2c1 (single isomer, unassigned) [Compound 78] | 1.84 (≈ 3.55 µM) | – | – | –
COc1nc2ccccc2cc1C(c1cccc(Br)c1)C(O)(CCCCN(C)C)c1ccc2ccccc2c1 (single isomer, unassigned) [Compound 161] | 1.85 (≈ 3.17 µM) | 2.07 (≈ 3.55 µM) | – | –
COc1nc2ccc(Br)cc2cc1C(c1ccccc1)C(O)(CCCCN1CCN(C)CC1)c1ccccc1 (single isomer, unassigned) [Compound 111] | 9.33 (≈ 15.9 µM) | 2.09 (≈ 3.55 µM) | – | –
COc1nc2ccc(Br)cc2cc1C(c1ccccc1)C(O)(CCCCN1CCN(C)CC1)CCC1CCCCC1 (single isomer, unassigned) [Compound 125] | 9.87 (≈ 15.9 µM) | 4.95 (≈ 7.95 µM) | – | –
COc1nc2ccc(Br)cc2cc1C(c1ccccc1)C(O)(CCCCN(C)C(C)C)c1ccccc1 (single isomer, unassigned) [Compound 88] | 11.2 (≈ 19.9 µM) | 6.3 (≈ 11.2 µM) | – | –
COc1nc2ccc(Br)cc2cc1C(c1ccccc1)C(O)(CCCCN(C)C(C)C)c1ccccc1 (single isomer, unassigned) [Compound 90] | 2.24 (≈ 3.99 µM) | 2.51 (≈ 4.47 µM) | – | –
COc1nc2ccc(Br)cc2cc1C(c1ccccc1)C(O)(CCCCN1CCCCC1)CCCc1ccccc1 (single isomer, unassigned) [Compound 146] | 9.76 (≈ 15.9 µM) | 5.49 (≈ 8.92 µM) | – | –

Reference: patent US8841321B2, “Quinoline derivatives as antibacterial agents” (Janssen Pharmaceutica NV, priority 2005, dated 2014)
